In patent EP3478687B1 (Daewoong Pharmaceutical Co., Ltd., priority 2016, dated 2018):
pIC50: −log10 of the molar value.

How the values were obtained:
[1] = biological target: T1, Recombinant purified human JAK3 (Homo sapiens, UniProt P52333); assay: JAK3 kinase inhibitory activity, ADP-Glo kinase assay (Promega V9441); format: biochemical; conditions: ATP 5 uM, 4 ng JAK3 per reaction, 1 hour 30 °C, chemiluminescence
T1 construct: purchased Promega V9441
T1 sequence (P52333 1-1124): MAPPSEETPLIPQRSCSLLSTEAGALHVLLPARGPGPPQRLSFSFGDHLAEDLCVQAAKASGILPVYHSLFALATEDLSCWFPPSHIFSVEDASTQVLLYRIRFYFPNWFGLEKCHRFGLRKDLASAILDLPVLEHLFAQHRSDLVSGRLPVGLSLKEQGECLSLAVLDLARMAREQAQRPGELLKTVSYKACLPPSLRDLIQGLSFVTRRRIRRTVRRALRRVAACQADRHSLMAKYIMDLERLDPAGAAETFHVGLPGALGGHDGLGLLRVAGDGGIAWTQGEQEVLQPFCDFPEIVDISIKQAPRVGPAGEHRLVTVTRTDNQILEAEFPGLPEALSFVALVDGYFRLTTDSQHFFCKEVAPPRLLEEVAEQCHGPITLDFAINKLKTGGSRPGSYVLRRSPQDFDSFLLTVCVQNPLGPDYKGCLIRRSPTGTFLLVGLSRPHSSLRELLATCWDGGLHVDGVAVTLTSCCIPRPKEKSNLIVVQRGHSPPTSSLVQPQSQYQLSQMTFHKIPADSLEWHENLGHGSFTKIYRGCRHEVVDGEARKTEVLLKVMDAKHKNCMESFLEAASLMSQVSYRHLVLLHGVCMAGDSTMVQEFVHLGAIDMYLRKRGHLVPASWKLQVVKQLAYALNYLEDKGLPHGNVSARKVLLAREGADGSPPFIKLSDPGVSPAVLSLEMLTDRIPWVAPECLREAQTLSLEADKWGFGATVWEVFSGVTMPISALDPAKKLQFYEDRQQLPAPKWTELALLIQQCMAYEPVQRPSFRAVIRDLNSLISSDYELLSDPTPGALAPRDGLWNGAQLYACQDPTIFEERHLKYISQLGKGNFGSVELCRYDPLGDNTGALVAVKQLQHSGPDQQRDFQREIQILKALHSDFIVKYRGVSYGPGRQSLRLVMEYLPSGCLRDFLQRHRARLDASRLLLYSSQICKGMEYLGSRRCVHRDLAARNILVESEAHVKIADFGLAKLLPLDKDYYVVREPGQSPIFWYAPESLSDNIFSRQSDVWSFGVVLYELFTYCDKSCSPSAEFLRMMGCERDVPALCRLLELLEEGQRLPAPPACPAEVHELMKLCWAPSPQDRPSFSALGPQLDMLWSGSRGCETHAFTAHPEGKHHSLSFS
In short: (§1)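 IC50 values come from ADP-Glo luminescence after 1 h kinase reactions at 30 °C in 1% DMSO on 0.2 µg/µL Poly(Glu4,Tyr1) substrate. ATP was 10 µM for BTK (8 ng, buffer containing MnCl2) and 5 µM for JAK3 (4 ng), in Tris-Cl pH 7.5/MgCl2/BSA/DTT.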

[2] = biological target: T2, Recombinant purified human BTK (Homo sapiens, UniProt Q06187); assay: BTK kinase inhibitory activity, ADP-Glo kinase assay (Promega V9071); format: biochemical; conditions: ATP 10 uM, 8 ng BTK per reaction, 1 hour 30 °C, chemiluminescence
T2 construct: purchased Promega V9071
T2 sequence (Q06187 whole entry): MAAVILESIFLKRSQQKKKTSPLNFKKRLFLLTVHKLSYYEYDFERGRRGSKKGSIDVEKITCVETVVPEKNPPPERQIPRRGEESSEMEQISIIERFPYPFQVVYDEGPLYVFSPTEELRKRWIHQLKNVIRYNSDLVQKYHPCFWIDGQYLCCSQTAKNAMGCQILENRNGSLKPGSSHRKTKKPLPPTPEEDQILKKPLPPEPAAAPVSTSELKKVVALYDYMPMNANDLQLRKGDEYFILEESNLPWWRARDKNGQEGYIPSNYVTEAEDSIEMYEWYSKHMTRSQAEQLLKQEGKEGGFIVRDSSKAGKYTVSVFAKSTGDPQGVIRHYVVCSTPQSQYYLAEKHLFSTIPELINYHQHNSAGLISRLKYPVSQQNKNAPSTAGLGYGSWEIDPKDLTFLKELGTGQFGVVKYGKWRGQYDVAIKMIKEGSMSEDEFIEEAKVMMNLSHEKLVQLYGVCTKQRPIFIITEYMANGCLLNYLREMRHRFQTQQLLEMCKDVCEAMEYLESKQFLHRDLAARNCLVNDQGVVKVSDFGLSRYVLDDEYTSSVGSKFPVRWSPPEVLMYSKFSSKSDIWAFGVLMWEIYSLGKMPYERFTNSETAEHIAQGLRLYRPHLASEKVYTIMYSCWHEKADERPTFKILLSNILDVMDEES
In short: as §1

Row | pIC50 [1] | pIC50 [2] | SMILES
1 | 8.30 | 8.89 | CCn1cc(Nc2nc(N[C@H]3CN(C(=O)/C(C#N)=C/C4CC4)CC[C@H]3F)c3c(Cl)n[nH]c3n2)cn1 [Example 161, (E)-2-((3S,4R)-3-((3-chloro-6-((1-ethyl-1H-pyrazol-4-yl)amino)-1H-pyrazolo[3,4-d]pyrimidin-4-yl)amino)-4-fluoropiperidine-1-carbonyl)-3-cyclopropylacrylonitrile]
2 | 8.52 | 8.32 | CC(C)/C=C(\C#N)C(=O)N1CCC[C@@H](Nc2nc(Nc3cnn(C4CC4)c3)nc3[nH]nc(Cl)c23)C1 [Example 162, (R,E)-2-(3-((3-chloro-6-((1-cyclopropyl-1H-pyrazol-4-yl)amino)-1H-pyrazolo[3,4-d]pyrimidin-4-yl)amino)piperidine-1-carbonyl)-4-methylpent-2-enenitrile]
3 | 8.57 | 8.92 | CC(C)(C)/C=C(\C#N)C(=O)N1CCC[C@@H](Nc2nc(Nc3cnn(C4CC4)c3)nc3[nH]nc(Cl)c23)C1 [Example 163, (R,E)-2-(3-((3-chloro-6-((1-cyclopropyl-1H-pyrazol-4-yl)amino)-1H-pyrazolo[3,4-d]pyrimidin-4-yl)amino)piperidine-1-carbonyl)-4,4-dimethylpent-2-enenitrile]
4 | 8.06 | 8.66 | N#C/C(=C\C1CC1)C(=O)N1CCC[C@@H](Nc2nc(Nc3cnn(C4CC4)c3)nc3[nH]nc(Cl)c23)C1 [Example 164, (R,E)-2-(3-((3-chloro-6-((1-cyclopropyl-1H-pyrazol-4-yl)amino)-1H-pyrazolo[3,4-d]pyrimidin-4-yl)amino)piperidine-1-carbonyl)-3-cyclopropylacrylonitrile]
5 | 8.66 | 8.72 | N#C/C(=C\C1CCCC1)C(=O)N1CCC[C@@H](Nc2nc(Nc3cnn(C4CC4)c3)nc3[nH]nc(Cl)c23)C1 [Example 165, (R,E)-2-(3-((3-chloro-6-((1-cyclopropyl-1H-pyrazol-4-yl)amino)-1H-pyrazolo[3,4-d]pyrimidin-4-yl)amino)piperidine-1-carbonyl)-3-cyclopentylacrylonitrile]
6 | 8.25 | 8.92 | CCn1cc(Nc2nc(N[C@@H]3CCCN(C(=O)/C(C#N)=C/C4CC4)C3)c3c(Cl)n[nH]c3n2)cn1 [Example 166]
7 | 7.37 | 8.82 | CCn1cc(Nc2nc(N(C)[C@@H]3CCCN(C(=O)/C(C#N)=C/C4CC4)C3)c3c(Cl)n[nH]c3n2)cn1 [Example 167, (R,E)-2-(3-((3-chloro-6-((1-ethyl-1H-pyrazol-4-yl)amino)-1H-pyrazolo[3,4-d]pyrimidin-4-yl)(methyl)amino)piperidine-1-carbonyl)-3-cyclopropylacrylonitrile]
8 | 7.74 | 8.37 | CCn1cc(Nc2nc(N(C)[C@@H]3CCCN(C(=O)/C(C#N)=C/C(C)C)C3)c3c(Cl)n[nH]c3n2)cn1 [Example 168]
9 | 6.62 | 8.66 | CCn1cc(Nc2nc(N[C@H]3CN(C(=O)/C(C#N)=C/C4CC4)CC[C@H]3C)c3c(Cl)n[nH]c3n2)cn1 [Example 169, (E)-2-((3R,4R)-3-((3-chloro-6-((1-ethyl-1H-pyrazol-4-yl)amino)-1H-pyrazolo[3,4-d]pyrimidin-4-yl)amino)-4-methylpiperidine-1-carbonyl)-3-cyclopropylacrylonitrile]
10 | 7.94 | 8.54 | CCn1cc(Nc2nc(N[C@H]3CN(C(=O)/C(C#N)=C/C(C)C)CC[C@H]3C)c3c(Cl)n[nH]c3n2)cn1 [Example 170, (E)-2-((3R,4R)-3-((3-chloro-6-((1-ethyl-1H-pyrazol-4-yl)amino)-1H-pyrazolo[3,4-d]pyrimidin-4-yl)amino)-4-methylpiperidine-1-carbonyl)-4-methylpent-2-enenitrile]
11 | 9.05 | 8.66 | CCn1cc(Nc2nc(N[C@@H]3CCCN(C(=O)/C(C#N)=C/C4CC4)C3)c3cc[nH]c3n2)cn1 [Example 171, (R,E)-3-cyclopropyl-2-(3-((2-((1-ethyl-1H-pyrazol-4-yl)amino)-7H-pyrrolo[2,3-d]pyrimidin-4-yl)amino)piperidine-1-carbonyl)acrylonitrile]
